Results taken from article PMC11191602, “A novel and selective fluorescent ligand for the study of adenosine A2B receptors” (Pharmacology Research & Perspectives, 2024).

Tests used:
NLuc‐A2BR = molecular target: T1, NLuc‐A2BR (Homo sapiens, UniProt P29275); test: NanoBRET competition binding against 50 nM PSB603‐BY630 in HEK293G cells expressing NLuc‐A2BR
T1 construct: expressed in transfected cells
T1 sequence (P29275 1-332): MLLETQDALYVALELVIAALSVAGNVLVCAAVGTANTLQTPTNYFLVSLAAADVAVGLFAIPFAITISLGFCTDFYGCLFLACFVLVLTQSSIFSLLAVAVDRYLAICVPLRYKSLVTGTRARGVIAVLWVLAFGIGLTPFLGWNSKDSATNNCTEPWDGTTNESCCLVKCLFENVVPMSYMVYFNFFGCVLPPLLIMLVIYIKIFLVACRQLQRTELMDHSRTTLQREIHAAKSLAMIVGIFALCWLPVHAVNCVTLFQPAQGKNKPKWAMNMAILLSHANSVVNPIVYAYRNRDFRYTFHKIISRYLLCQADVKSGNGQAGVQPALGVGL
Method: Saturation and competition binding assays were performed as previously described.[36] Briefly, cells were seeded in 96‐well white clear‐bottomed Greiner plates pre‐treated with 10 μg/mL poly‐D‐lysine (Sigma‐Aldrich, Missouri USA) at a density of 30 000–35 000 cells per well in DMEM supplemented with 10% FBS. […] The NanoLuc substrate, furimazine (Promega Corporation, Wisconsin, USA), was then added to each well (1:400 dilution) and the plate was incubated for 10 min in the dark at 37°C. The resulting bioluminescence resonance energy transfer (BRET) was measured using a PHERAstar FS plate reader (BMG Labtech) at 37°C. For each well, filtered light emissions at 460 nm (80 nm bandpass) and >610 nm (longpass) for the BODIPY630/650 ligand were simultaneously measured. BRET ratios were calculated by dividing the 610 nm emission by the 460 nm emission. All conditions were performed in 2–6 replicates within each plate. For kinetic experiments, cells were preincubated for 10 min with 1:400 dilution of furimazine prior to addition of 200 nM PSB603‐BY630 and BRET ratios determined every 0.5 min.
The IC 50 values were then used to calculate the K i values using the Cheng‐Prussoff equation: Ki=IC50/1+L/KD where [L] is the concentration of PSB603‐BY630 in nM, and K D is the dissociation constant of that fluorescent ligand in nM.

[1] = molecular target: T2, endogenous A2BR in human monocyte‐derived M1‐like macrophages (Homo sapiens, UniProt P29275); test: Flow cytometry of PSB603‐BY630 binding to M1‐like macrophages; format: cell-based; details: 100 nM PSB603‐BY630, 10 μM unlabelled PSB603, six donors, p <.01 paired t‐test
T2 construct: monitor endogenous A2BR expression on human macrophages; endogenous in cells; host or cells: M1-like (GMCSF) and M2-like (MCSF) macrophages differentiated from CD14+ monocytes of healthy human donors
T2 sequence (P29275 1-332): T1 sequence (P29275 1-332)
Method: (§1) One hundred and fifty milliliter peripheral blood was obtained in heparinised 60 mL syringes by venepuncture from healthy volunteers after written informed consent (Ethics from University of Nottingham Ethics committee, ref 161–1711). Peripheral blood mononuclear cells (PBMC) were immediately separated by density centrifugation over Lymphoprep (Stemcell, UK) at 800g for 25 min on low brake followed by washes in endotoxin‐free phosphate‐buffered saline (PBS, Sigma). PBMC were washed in MACS buffer (PBS + 1% fetal calf serum (FCS, Sigma) + […] (Sigma)) then incubated with CD14 microbeads (Miltenyi Biotech) and monocytes isolated by magnetic separation on an AutoMACS Pro cell separator (Miltenyi). Cell purity was routinely assessed by flow cytometry (>95%). […]
(§2) Harvested macrophages were resuspended in staining buffer (HBSS [Sigma] supplemented with 2.5% v/v FCS and Ethylenediaminetetraacetic acid‐ EDTA 5 mM) at 2 × 10^6 cells/mL. […] BODIPY 630/650 fluorescence was measured on a MACSQuant 10 Flow Cytometer (Miltenyi) immediately after incubation (>5 × 10^4 events acquired). Flow cytometry data were analyzed using FlowJo software v10. […]

[2] = molecular target: T3, endogenous A2BR in human monocyte‐derived M2‐like macrophages (Homo sapiens, UniProt P29275); test: Flow cytometry of PSB603‐BY630 binding to M2‐like macrophages; format: cell-based; details: 100 nM PSB603‐BY630, 10 μM unlabelled PSB603, six donors, p <.01 paired t‐test
T3 construct: monitor endogenous A2BR expression on human macrophages; endogenous in cells; host or cells: M1-like (GMCSF) and M2-like (MCSF) macrophages differentiated from CD14+ monocytes of healthy human donors
T3 sequence (P29275 1-332): T1 sequence (P29275 1-332)
Method: as §1, §2

A2BR = test system: A2BR; parameters: method as in PMID 29106905, PMID 19569717; details: cited from earlier work

CCCn1c(=O)[nH]c2nc(-c3ccc(S(=O)(=O)N4CCN(c5ccc(Cl)cc5)CC4)cc3)[nH]c2c1=O [PSB603, 8‐[4‐[4‐(4‐Chlorophenzyl)piperazide‐1‐sulfonylphenyl]]‐1‐propylxanthine]
Appararent Log K i (NLuc‐A2BR): −9.12 ± 0.08
Log IC50 (NLuc‐A2BR): −8.55 ± 0.08
inhibition of PSB603‐BY630 binding (median fluorescence intensity) [1]: significant inhibiton
inhibition of PSB603‐BY630 binding (median fluorescence intensity) [2]: significant inhibiton
affinity for A2BR (A2BR): sub‐nanomolar
